Laboratory results from US5610174A, “Use of α1A -selective adrenoceptor agonists for the treatment of urinary incontinence” (priority 1995, dated 1997).
Read-outs that look alike come from different tables or passages of the source.

What was measured:
[1] = molecular target: T1, human α2A adrenoceptor (Homo sapiens, UniProt P08913); assay: Radioligand binding ([3H]rauwolscine) at cloned human α2A
T1 construct: expressed in transfected cells; host or cells: LM(tk-)
T1 sequence (P08913 1-465): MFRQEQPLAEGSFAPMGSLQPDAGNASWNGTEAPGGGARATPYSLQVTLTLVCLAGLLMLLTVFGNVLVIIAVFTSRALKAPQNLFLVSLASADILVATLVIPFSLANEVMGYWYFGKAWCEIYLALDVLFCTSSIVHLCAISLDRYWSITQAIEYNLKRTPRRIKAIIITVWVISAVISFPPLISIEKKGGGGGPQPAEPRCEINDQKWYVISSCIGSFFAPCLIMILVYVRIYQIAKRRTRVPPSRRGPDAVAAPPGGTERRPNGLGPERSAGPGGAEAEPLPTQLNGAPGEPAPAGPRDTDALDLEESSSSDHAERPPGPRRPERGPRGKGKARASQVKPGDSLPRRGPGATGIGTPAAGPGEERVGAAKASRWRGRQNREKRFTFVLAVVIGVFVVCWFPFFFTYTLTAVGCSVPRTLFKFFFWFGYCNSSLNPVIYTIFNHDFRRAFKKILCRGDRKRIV
Experimental: To determine the affinity of compounds at the α2 receptors, LM(tk-) cell lines stably transfected with the genes encoding the α2A, α2B, and α2C receptors were used. Cell lysates were prepared as described above (see Radioligand Binding Assays), and suspended in 25 mM glycylglycine buffer (pH 7.6 at room temperature). Equilibrium competition binding assays were performed using [^3 H] rauwolscine (0.5 nM), and nonspecific binding was determined by incubation with 10 μM phentolamine. The bound radioligand was separated by filtration through GF/B filters using a cell harvester.

[2] = molecular target: T2, human dopamine D2 receptor (Homo sapiens, UniProt P14416); assay: Radioligand binding at human dopamine D2; conditions: [3H]spiperone; for Ki: read-out: pKi D2 (converted)
T2 construct: expressed in transfected cells; host or cells: COS-7 (plasmid pcEXV-D2, ATCC 75344)
Experimental: Human Dopamine D2 Receptors
The affinity of compounds at the D2 receptor were determined using membrane preparations from COS-7 cells transfected with the gene encoding the human D2 receptor. The coding region for the human D2 receptor was obtained from a human striatum cDNA library, and cloned into the cloning site of PCDNA 1 eukariotic expression vector. The plasmid DNA for the D2 receptor is designated pcEXV-D2, and was deposited on Nov. 6, 1992 under ATCC Accession No. 75344. This construct was transfected into COS-7 cells by the DEAE-dextran method. Cells were harvested after 72 hours and lysed by sonication in 5mM Tris-HCl, 5 mM EDTA, pH 7.5. The cell lysates were centrifuged at 1000 rpm for 5 minutes at 4° C., and the supernatant was centrifuged at 30,000×g for 20 minutes at 4° C. The pellet was suspended in 50 mM Tris-HCl (pH 7.4) containing 1 mM EDTA, 5 mM KCl, 1.5 mM CaCl2, 4 mM MgCl2, and 0.1% ascorbic acid. The cell lysates were incubated with [3H]spiperone (2 nM), using 10 μM (+)Butaclamol to determine nonspecific binding.

[3] = molecular target: human dopamine D3 receptor; assay: Radioligand binding at human dopamine D3
Experimental: Other Dopamine receptors were prepared by known methods. (D1 : Dearry et al., Nature, 347, 72, (1990), deposited with the European Molecular Biological Laboratory (EMBL) Genbank as X55760; D3 : Sokoloff, P. et al., Nature, 347, 146 (1990), deposited with the European Molecular Biological Laboratory (EMBL) Genbank as X53944; D5 : Sunahara, R. K., et al., Nature, 350, 614 (1991), deposited with EMBL Genbank as X58454-HU HD 5DR).

[4] = molecular target: T3, human 5-HT1Dβ receptor (Homo sapiens, UniProt P28222); assay: Radioligand binding at human 5-HT1Dβ
T3 construct: expressed in transfected cells; host or cells: LM(tk-) clonal cell line, designated Ltk-11, ATCC CRL 10422 (cell lysates)
Experimental: Human Serotonin Receptors
5-HT1Dα, 5-HT1Dβ, 5-HT1E, 5-HT1F, and 5-HT7 Receptors: The cell lysates of LM(tk-) clonal cell line stably transfected with the genes encoding each of these 5-HT receptor-subtypes were prepared as described above. The cell line for the 5-HT1Dαreceptor, designated as Ltk-8-30-84, was deposited on Apr. […] The cell for the 5-HT1Dβ receptor, designated as Ltk-11, was deposited on Apr. […] The cell line for the 5-HT1E receptor, designated 5-HT1E -7, was deposited on Nov. […] The cell line for the 5-HT1F receptor, designated L-5-HT1F, was deposited on Dec. […] The cell line for the 5-HT7 receptor, designated as L-5-HT-4B, was deposited on Oct. […] These preparations were suspended in 50 mM Tris-HCl buffer (pH 7.4 at 37° C.) containing 10 mM MgCl2, 0.2 mM EDTA, 10 μM pargyline, and 0.1% ascorbate. […] Nonspecific binding was determined in the presence of 10 μM serotonin. The bound radioligand was separated by filtration through GF/B filters using a cell harvester.

[5] = molecular target: T4, human histamine H1 receptor (Homo sapiens, UniProt P35367); assay: Radioligand binding at cloned human histamine H1; conditions: [3H]mepyramine; for Ki: read-out: pKi H1 (converted)
T4 construct: expressed in transfected cells; host or cells: COS-7 (plasmid pcEXV-H1, ATCC 75346)
Experimental: Human Histamine H1 Receptor
The coding sequence of the human histamine H1 receptor, homologous to the bovine H1 receptor, was obtained from a human hippocampal cDNA library, and was cloned into the eukaryotic expression vector pCEXV-3. The plasmid DNA for the H1 receptor is designated pcEXV-H1, and was deposited on Nov. 6, 1992 under ATCC Accession No. 75346. This construct was transfected into COS-7 cells by the DEAE-dextran method. Cells were harvested after 72 hours and lysed by sonication in 5 mM Tris-HCl, 5 mM EDTA, pH 7.5. The cell lysates were centrifuged at 1000 rpm for 5 min at 4° C., and the supernatant was centrifuged at 30,000×g for 20 min. at 4° C. The pellet was suspended in 37.8 mM NaHPO4, 12.2 mM KH2 PO4, pH 7.5. […]. The bound radioligand was separated by filtration through GF/B filters using a cell harvester.

[6] = Table 3, agonists, read-out: pKi α2A (converted)

T3 sequence (P28222 whole entry): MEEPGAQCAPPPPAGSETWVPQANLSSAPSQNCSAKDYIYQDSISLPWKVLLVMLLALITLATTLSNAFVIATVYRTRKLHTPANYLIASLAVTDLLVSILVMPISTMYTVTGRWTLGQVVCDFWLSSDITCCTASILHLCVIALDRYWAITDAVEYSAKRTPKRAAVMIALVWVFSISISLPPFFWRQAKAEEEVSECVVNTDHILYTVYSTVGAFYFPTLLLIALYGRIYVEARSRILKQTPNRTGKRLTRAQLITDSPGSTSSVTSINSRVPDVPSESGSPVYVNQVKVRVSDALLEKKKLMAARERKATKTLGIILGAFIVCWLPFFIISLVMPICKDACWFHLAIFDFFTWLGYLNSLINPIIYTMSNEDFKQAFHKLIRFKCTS
T2 sequence (P14416 whole entry): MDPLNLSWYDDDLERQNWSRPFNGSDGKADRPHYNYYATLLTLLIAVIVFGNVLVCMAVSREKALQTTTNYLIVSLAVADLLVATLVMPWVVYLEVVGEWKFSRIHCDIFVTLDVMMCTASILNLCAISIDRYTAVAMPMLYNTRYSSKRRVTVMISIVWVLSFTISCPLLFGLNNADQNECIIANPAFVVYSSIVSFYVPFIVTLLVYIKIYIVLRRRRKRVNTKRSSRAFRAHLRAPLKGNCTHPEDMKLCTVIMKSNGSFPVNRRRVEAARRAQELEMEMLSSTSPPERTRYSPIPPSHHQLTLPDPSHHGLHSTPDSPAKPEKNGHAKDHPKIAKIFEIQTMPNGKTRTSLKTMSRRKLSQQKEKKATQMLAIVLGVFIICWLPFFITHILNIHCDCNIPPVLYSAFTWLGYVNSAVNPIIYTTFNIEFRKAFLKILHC
T4 sequence (P35367 whole entry): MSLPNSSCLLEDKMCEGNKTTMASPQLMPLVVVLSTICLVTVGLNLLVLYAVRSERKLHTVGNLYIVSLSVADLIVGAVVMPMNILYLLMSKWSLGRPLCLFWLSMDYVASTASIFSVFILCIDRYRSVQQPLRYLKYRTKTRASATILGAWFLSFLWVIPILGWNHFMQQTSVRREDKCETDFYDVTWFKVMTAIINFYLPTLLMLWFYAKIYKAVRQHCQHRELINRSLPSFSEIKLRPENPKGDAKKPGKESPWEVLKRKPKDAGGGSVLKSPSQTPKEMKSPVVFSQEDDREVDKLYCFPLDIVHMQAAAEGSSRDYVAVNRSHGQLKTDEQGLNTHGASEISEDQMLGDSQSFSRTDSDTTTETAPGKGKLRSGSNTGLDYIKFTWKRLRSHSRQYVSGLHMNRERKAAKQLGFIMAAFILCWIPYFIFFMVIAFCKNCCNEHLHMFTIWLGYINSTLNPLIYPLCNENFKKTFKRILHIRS

| SMILES | Ki [1, 6] | Ki [2] | pKi D3 [3] | Ki [5] | other results |
| --- | --- | --- | --- | --- | --- |
| C[C@H](N)[C@H](O)c1ccccc1 [(-)-norephedrine] | 0.501 µM | – | – | – | – |
| CN[C@@H](C)[C@H](O)c1ccccc1 [(-)-ephedrine] | 0.794 µM | – | – | – | – |
| CS(=O)(=O)Nc1c(O)ccc2c1CCCC2C1=NCCN1 (racemic) [Compound A-61603, (±)-N-[5-(4,5-Dihydro-1H-imidazol-2-yl)-2-hydroxy-5,6,7,8-tetra-hydronaphthalen-1-yl]methanesulfonamide] | – | 10 µM | 5.8 | 50.1 µM | Ki ([4]; [3H]serotonin, read-out: pKi 5-HT1Dβ (converted)): 6.31 µM |
| COc1ccc(SC)c2c1C[C@@H]1[C@@H](C2)OCCN1C (relative stereo) [SDZ NVI-085, (±)-trans-4-Methyl-6-methoxy-9-thiomethoxy-3,4,4a, 5,10,10a-hexahydro-2H-naphtho[2,3-b][1,4]oxazine] | – | 3.16 µM | 6.0 | 5.01 µM | Ki [1]: 0.0501 µM; Ki [4]: 0.02 µM |
| COc1ccc(OC)c(C(O)CN)c1 (racemic) [ST-1059, (±)-2-Amino-1-(2, 5 dimethoxyphenyl) ethanol] | 2 µM | – | – | – | – |
| CNCCc1ccc(O)c(NS(C)(=O)=O)c1 [SK&F 102652] | – | – | 6.7 | – | pKi D2 [2]: 6.7; pKi α2A ([1]; Table 3, agonists): 6.4; pKi 5-HT1Dβ ([4]; [3H]serotonin): 5.5; pKi H1 [5]: 4.3 |
